pIC50: −log10 of the molar value. Like-named read-outs stand apart in the source and are kept apart here.
Key:
Calcium^2+ channel = assay: Calcium Channel (mobilization) Inhibition Assay (Fura-2 fluorescence); assay type: cell-based
Excerpt: Calcium Channel (mobilization) Inhibition Assay
Polymorphonuclear leukocytes (PMNa), gastric glands, GH3 cells, A431 cells, spleen cells, human keratinocytes corneal cells, etc. were loaded with the Ca^2+ sensitive fluorescent dye, Fura-2. The appropriate cell type was chosen and the potency and efficacy of the anti-inflammatory furanones on calcium mobilization, calcium channel inhibition was quantitated. The methods used for A431 cells listed below are representative of those used for other cells.
A431 cells were detached using a 5-10 min trypsin-EDTA treatment whereas GH3 cells were treated 2 to 5 min with a 1% pancreatin solution. Cells were immediately washed twice in a 20 mM HEPES buffer (pH 7.4) containing 120 mM NaCl, 6 mM KCl, 1 mM MgSO4, 1 mg/ml glucose and 1 mg/ml pyruvate and 1.4 mM calcium (medium A). Approximately 5×10^6 cells were suspended in medium A and incubated with 4 uM fura-2-AM for 15 min at 37° C.
After washing the fura-2 loaded cells, the uptake of dye was checked using fluorescence microscopy and found to be evenly distributed in the cytosol of all cells. Fluorescence was continuously recorded with a Perkin-Elmer LS-5 spectrofluorometer. The excitation wavelength was set at 340 nm and emission wavelength set at 500 nm. The cell suspension was continually stirred, maintained at 37° C. and equilibrated for approximately 5 min before addition of various agents. [Ca^2+ i was calculated using the following formula: [formula]
All fluorescence values were measured relative to a EGTA-quenched signal determined as follows: F was the relative fluorescence measurement of the sample. Fmax was determined by lysing the cells with digitonin (100 ug/ml) in DMSO. After Fmax was determined the pH was adjusted to 8, with NaOH and Ca^2+ chelated with 3 mM EGTA to totally quench the fura-2 signal and obtain Fmin.
When quin-2- was used, cells were incubated with 10 uM quin-2- at 37° C. for 1 hour, washed and then used.

[1] = target: bee venom phospholipase A2 (Apis mellifera, UniProt P00630); assay type: biochemical
bee venom phospholipase A2, sequence (P00630 34-167 limits assumed): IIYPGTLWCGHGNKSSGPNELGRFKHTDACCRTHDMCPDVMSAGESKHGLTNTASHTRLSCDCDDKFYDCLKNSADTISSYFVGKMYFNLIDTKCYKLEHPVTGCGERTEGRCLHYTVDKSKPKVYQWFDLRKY

[2] = read-out: IC50, Calcium^2+ Channel Mobilization Inhibition, KCl induced
[3] = read-out: IC50, Calcium^2+ Channel Mobilization Inhibition, TRH induced

| SMILES | pIC50 (Calcium^2+ channel; [2]) | pIC50 (Calcium^2+ channel; [3]) | IC50, Phospholipase A2 Assay [1] | IC50, Calcium^2+ Channel Mobilization Inhibition, TRH induced (Calcium^2+ channel; TRH induced) |
| --- | --- | --- | --- | --- |
| CCCCCCCCCCCCC(O)C1=CC(=O)OC1C (single isomer, unassigned) [Compound 3, 4-(1-Hydroxytridecyl)-5-methyl-2(5H)-furanone] | 6.33 | 6.17 | inactive at 3 μM | – |
| CCCCCCCCCCCCC(OC(C)=O)C1=CC(=O)OC1C (centres unmarked) [Compound 1, 4-(1-Acetoxytridecyl)-5-methyl-2(5H)-furanone] | 6.44 | 5.19 | inactive at 3 μM | – |
| CCCCCCCCCCCCC(OC(C)=O)C1=C(C)C(=O)OC1 (centres unmarked) [Compound 2, 4-(1-Acetoxytridecyl)-3-methyl-2-furanone] | 6.60 | 6.00 | inactive at 3 μM | – |
| CCCCCCCCCCCC(=O)OCC1=C(c2ccccc2)C(=O)OC1C (centres unmarked) [Compound 4, 4-Dodecoyloxymethyl-5-methyl-3-phenyl-2(5H)-furanone] | 5.10 | – | inactive at 3 μM | inactive |
| CC1=C(CC/C(C)=C/CCC2=CCC(C3=CC(=O)OC3O)OC2O)C(C)(C)CCC1 (centres unmarked) [manoalide, reference compound] | 6.10 | 6.22 | – | – |
